{"source": "patent US11124785B2", "about": "“Rothia subtilisins, S8A family proteases, as therapeutic enzymes for application in gluten intolerance disorders” (TRUSTEES OF BOSTON UNIVERSITY, priority 2016, dated 2021)", "assay_type_in_all_cases": "biochemical", "key": {"[1]": {"test_system": "Z-PFP-pNA", "assay": "Hydrolysis of paranitroanilide-derivatized substrate Z-PFP-pNA", "conditions": "substrate 200 μM, pH 8.0 (data not shown)", "description": "(§1) Hydrolysis of paranitroanilide-derivatized substrates—Paranitroanilide (pNA)-derivatized tripeptide substrates were chemically synthesized at >90% purity (21st Century Biochemicals, Marlborough, Mass.). The substrates obtained were Z-YPQ-pNA, Z-QQP-pNA, Z-LPY-pNA, Z-PFP-pNA, Z-PPF-pNA, where Z=benzyloxycarbonyl, Y=tyrosine, P=proline, Q=glutamine, L=leucine, and F=phenylalanine Suc-AAPF-pNA (SEQ ID NO: 4) was obtained from Sigma, where Suc=N-succinyl and A=alanine. The peptides were dissolved in 75-100% DMSO at 10 mM, and were used at a final concentration of 200 μM in 50 mM TrisHCl pH 8.0. Purified Rothia enzyme or subtilisin A from Bacillus licheniformis (Sigma) were tested at final concentrations of 1 μg/ml. Some experiments were conducted in the presence of inhibitors 4-(2-Aminoethyl) benzenesulfonyl fluoride (AEBSF), Aprotinin, E-64, EDTA, phenylmethanesulfonyl fluoride (PMSF) and Eglin C, which were tested at final concentrations of 10 mM, 0.08 mM, 0.1 mM, 1.5 mM, 1 mM, and 0.06-1.2 μM, respectively. Enzymes were preincubated with the inhibitors for 20 min before adding Suc-AAPF-pNA (SEQ ID NO: 4). Substrate hydrolysis was monitored for 10 h at 405 nm using a Genios microtiter plate reader (Tecan, Männedorf, Switzerland) in the kinetic mode at 37° C."}, "[2]": {"test_system": "G12 epitopes (QPQLPY) in mixed gliadins", "assay": "G12 ELISA, gluten epitope elimination in gliadin digests", "conditions": "gliadins 250 μg/ml, enzyme 57 μg/ml", "description": "FIG. 8E and FIG. 8F show the assessment of the survival of epitopes in the gliadin-NattoK degradation mixture employing the R5 ELISA (FIG. 8E) or G12 ELISA (FIG. 8F) assays. Epitope abolishment in Mixed gliadins (250 μg/ml) were incubated with NattoK (57 μg/ml) for 0, 15, 30 and 120 min and then assayed by the R5 ELISA or G12 ELISA.\nR5 and G12 ELISA assays—Gluten epitope elimination in the gliadin-Rmep and gliadin-subtilisin A digests was assessed using two sandwich ELISA assays employing the R5 monoclonal antibody (RIDASCREEN Gliadin, R-Biopharm, Darmstadt, Germany) or the G12 monoclonal antibody (AgraQuant® ELISA Gluten G12, Romer labs, Union, Mo.). To prevent high background values, the R5 plate wells were blocked with 1% skim milk in PBS prior to incubation with the samples. The assays were performed according to the manufacturers' instructions and as described (21, 24).\nTo further investigate this, the time courses of degradation of mixed gliadins and the highly immunogenic 33-mer α-gliadin peptide were determined. Furthermore, epitope elimination was monitored by two ELISA assays employing the R5 antibody recognizing QQPFP (SEQ ID NO: 40) and related pentapeptides (27, 28) and the G12 antibody recognizing QPQLPY (SEQ ID NO: 22) contained in the 33-mer peptide (29, 30). Data obtained with Rmep are shown in FIG. 5, and with subtilisin A in FIG. 6."}, "[3]": {"test_system": "Suc-AAPF-pNA", "assay": "Hydrolysis of paranitroanilide-derivatized substrate Suc-AAPF-pNA", "conditions": "substrate 200 μM; enzyme 1 μg/ml (NattoK: dilution series); 50 mM TrisHCl pH 8.0, 37° C.", "description": "(§2) FIG. 4A and FIG. 4B are representative graphs of the hydrolysis of the substrates: Suc-AAPF-pNA (SEQ ID NO: 4), Z-YPQ-pNA, and Z-LPY-pNA, each at 200 μM, by Rmep and subtilisin A, respectively, each at 1 μg/ml.\nFIG. 8C show a representative graph of the hydrolysis of the substrate, Suc-AAPF-pNA (SEQ ID NO: 4), with a dilution series of NattoK. Suc-AAPF-pNA (SEQ ID NO: 4) was incubated […]. Hydrolysis was measured at 405 nm.\nas §1"}, "[4]": {"test_system": "FRET substrate PQPQPQ", "assay": "FRET substrate hydrolysis, PQPQPQ", "conditions": "substrate 100 μM, Rmep 1 μg/ml, subtilisin A 0.5 μg/ml, pH 8.0", "description": "(§3) FIG. 4D and FIG. 4E are representative graphs of the hydrolysis of gliadin-derived FRET substrates. FRET substrates containing QPQLPY (SEQ ID NO: 22), PQPQPQ (SEQ ID NO: 23) and QGSFQP (SEQ ID NO: 24), each at 100 μM, were incubated with Rmep […] and subtilisin A (FIG. 4E), at 1 μg/ml and 0.5 μg/ml, respectively. Controls were boiled Rmep and subtilisin A incubated with PQPQLPY (+) (SEQ ID NO: 25), PQPQPQ (⋄) (SEQ ID NO: 23) and QGSFQP (*) (SEQ ID NO: 24) (no activity, baseline).\n(§4) FRET substrate hydrolysis—Three fluorescence resonance energy transfer (FRET) substrates comprising the hexapeptides QPQLPY (SEQ ID NO: 22), PQPQPQ (SEQ ID NO: 23) and QGSFQP (SEQ ID NO: 24) were synthesized with at the N-terminus the HILYTE FLUOR™ 488 label, and at the C-terminus with K(QXL520) (Anaspec, Fremont, Calif.). Rmep (1 μg/ml) and subtilisin A (0.5 μg/ml) were incubated with the substrates (100 μM) in 50 mM TrisHCl pH 8.0. Samples were incubated at 37° C. and fluorescence increase, indicating hydrolysis, was measured every 5 min for 30 min, and every 10 min for the next 30 min, at λex 485 nm and λem 520 nm, using a Genios microtiter plate reader in the kinetic mode."}, "[5]": {"test_system": "gliadin-derived FRET substrate QPQLPY", "assay": "FRET substrate hydrolysis, QPQLPY", "conditions": "substrate 100 μM, Rmep 1 μg/ml, pH 8.0, 37° C.", "description": "as §3, §4"}, "[6]": {"test_system": "Z-YPQ-pNA", "assay": "Hydrolysis of paranitroanilide-derivatized substrate Z-YPQ-pNA", "conditions": "substrate 200 μM, enzyme 1 μg/ml, pH 8.0; second most rapid after Suc-AAPF-pNA", "description": "as §2\nas §1, with “Enzymes were preincubated with the inhibitors for 20 min before adding Suc-AAPF-pNA (SEQ ID NO: 4).” left out"}, "[7]": {"test_system": "Suc-AAPF-pNA", "assay": "pH activity profile of Rmep with Suc-AAPF-pNA", "conditions": "Suc-AAPF-pNA 200 μM; citric acid/phosphate buffer mixtures pH 2-12", "description": "Activity of Rmep in 0.1M Citric acid/0.2M phosphate buffer mixtures, pH 2-12, was measured with Suc-AAPF-pNA (SEQ ID NO: 4) (200 μM) as the substrate.\nas §1, with “Enzymes were preincubated with the inhibitors for 20 min before adding Suc-AAPF-pNA (SEQ ID NO: 4).” left out"}}, "data": [{"molecule": "Rmep: DEAE pooled fraction F2 of R. mucilaginosa ATCC 25296 extract with highest gluten-degrading enzyme activity; contains subtilisins C6R5V9_9MICC and C6R5W1_9MICC", "values": [{"measurement": "hydrolysis of Z-PFP-pNA", "setting": "[1]", "value": "not hydrolyzed"}, {"measurement": "decrease of G12 antibody binding after 30 min", "setting": "[2]; 30 min", "value": 65, "unit": "%"}, {"measurement": "reduction of G12 antibody binding / G12 epitope degradation after 2 h", "setting": "[2]", "value": 85, "unit": "%"}, {"measurement": "hydrolysis of Suc-AAPF-pNA", "setting": "[3]", "value": "cleaved most rapidly"}, {"measurement": "hydrolysis of FRET substrate PQPQPQ", "setting": "[4]", "value": "rapidly hydrolyzed"}, {"measurement": "hydrolysis of FRET substrate QPQLPY", "setting": "[5]", "value": "rapidly hydrolyzed"}, {"measurement": "hydrolysis of Z-YPQ-pNA", "setting": "[6]", "value": "cleaved"}, {"measurement": "pH range over which the enzyme was active", "setting": "[7]", "value": "6.0-10.0"}]}, {"molecule": "subtilisin A: subtilisin A from Bacillus licheniformis (Sigma) (protein, listed as Bacillus licheniformis) MMRKKSFWLGMLTAFMLVFTMAFSDSASAAQPAKNVEKDYIVGFKSGVKTASVKKDIIKESGGKVDKQFRIINAAKAKLDKEALKEVKNDPDVAYVEEDHVAHALAQTVPYGIPLIKADKVQAQGFKGANVKVAVLDTGIQASHPDLNVVGGASFVAGEAYNTDGNGHGTHVAGTVAALDNTTGVLGVAPSVSLYAVKVLNSSGSGTYSGIVSGIEWATTNGMDVINMSLGGPSGSTAMKQAVDNAYARGVVVVAAAGNSGSSGNTNTIGYPAKYDSVIAVGAVDSNSNRASFSSVGAELEVMAPGAGVYSTYPTSTYATLNGTSMASPHVAGAAALILSKHPNLSASQVRNRLSSTATYLGSSFYYGKGLINVEAAAQ", "values": [{"measurement": "hydrolysis of Z-PFP-pNA", "setting": "[1]", "value": "not hydrolyzed"}, {"measurement": "reduction of G12 antibody binding / G12 epitope degradation after 2 h", "setting": "[2]", "value": 45, "unit": "%"}, {"measurement": "G12 epitope degradation at t=0", "setting": "[2]; t=0", "value": 22, "unit": "%"}, {"measurement": "hydrolysis of Suc-AAPF-pNA", "setting": "[3]", "value": "cleaved most rapidly"}, {"measurement": "hydrolysis of FRET substrate PQPQPQ", "setting": "[4]", "value": "highest activity"}, {"measurement": "hydrolysis of Z-YPQ-pNA", "setting": "[6]", "value": "cleaved"}]}]}
